The target in one assay is Cathepsin S (UniProt P25774). In words: Cathepsin enzyme inhibition assay (fluorogenic peptide substrate Z-Val-Val-Arg-AMC), Cathepsin S. It counts as biochemical, human and mouse. The conditions noted are these: enzyme 1 nM, substrate 20 μM, pH 6.5; read-out: CatS IC50. In a few lines:
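Compounds were combined with 1 nM human or mouse enzyme, and substrate then started the reaction. The buffer was potassium phosphate (100 mM, pH 6.5) containing EDTA-Na 5 mM, Triton X-100 0.001% and […] 5 mM.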

A further assay has as its target Cat L (UniProt P07711). The assay is described as follows: Cathepsin enzyme inhibition assay (fluorogenic peptide substrate Z-Val-Val-Arg-AMC), Cathepsin L. It counts as biochemical, human and mouse. The note with it: enzyme 1 nM, substrate 20 μM, pH 6.5; read-out: CatL IC50. In a few lines:
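Fluorogenic cleavage of Z-Val-Val-Arg-AMC (20 μM) by 1 nM Cat L was monitored at ex 360/em 465 nm for 20 min, the linear phase. The buffer was 100 mM potassium phosphate pH 6.5 with 5 mM EDTA and DTT. IC50 values were derived by standard methods, in μM.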

Structures are written as SMILES.

In the case of `N#CC1(NC(=O)[C@@H]2C[C@@H](S(=O)(=O)c3ccc(F)cc3Cl)CN2)CC1` [Example 144, (2S,4R)-4-(2-Chloro-4-fluoro-benzenesulfonyl)-pyrrolidine-2-carboxylic acid (1-cyano-cyclopropyl)-amide], the concentration for half-maximal inhibition (IC50) – broadly, the midpoint of a concentration-inhibition curve – on Cathepsin S is 9.7 nM; at Cat L it was 28200 nM.
As to `N#CC1(NC(=O)[C@@H]2C[C@@H](S(=O)(=O)c3ccc(F)cc3Cl)CN2C(=O)C2(C(F)(F)F)CC2)CC1` [Example 145, (2S,4R)-4-(2-Chloro-4-fluoro-benzenesulfonyl)-1-(1-trifluoromethyl-cyclopropanecarbonyl)-pyrrolidine-2-carboxylic acid (1-cyano-cyclopropyl)-amide], the IC50 at Cathepsin S amounted to 0.6 nM; at Cat L, 11800 nM.
In the same order, the values of `N#CC1(NC(=O)[C@@H]2C[C@@H](S(=O)(=O)c3ccc(N4CCCCC4)cc3Cl)CN2C=O)CC1` [Example 146, (2S,4R)-4-(2-Chloro-4-piperidin-1-yl-benzenesulfonyl)-1-formyl-pyrrolidine-2-carboxylic acid (1-cyano-cyclopropyl)-amide formiate] are 6.4 nM and 25500 nM.
Consider `N#CC1(NC(=O)[C@@H]2C[C@@H](S(=O)(=O)c3ccc(-n4cccn4)cc3Cl)CN2C(=O)C2(C(F)(F)F)CC2)CC1` [Example 147, (2S,4R)-4-(2-Chloro-4-pyrazol-1-yl-benzenesulfonyl)-1-(1-trifluoromethyl-cyclopropanecarbonyl)-pyrrolidine-2-carboxylic acid (1-cyano-cyclopropyl)-amide], for which the half-maximal inhibitory concentration (IC50) on Cathepsin S is 0.4 nM; on Cat L it was 13600 nM.
Regarding `N#CC1(NC(=O)[C@@H]2C[C@@H](S(=O)(=O)c3ccc(-n4cccn4)cc3Cl)CN2C=O)CC1` [Example 148, (2S,4R)-4-(2-Chloro-4-pyrazol-1-yl-benzenesulfonyl)-1-formyl-pyrrolidine-2-carboxylic acid (1-cyano-cyclopropyl)-amide], the results for the IC50 at Cathepsin S and at Cat L were 16 nM and no less than 25000 nM, respectively.
`CC(Oc1ccc(S(=O)(=O)[C@@H]2C[C@@H](C(=O)NC3(C#N)CC3)N(C(=O)C3(C(F)(F)F)CC3)C2)c(Cl)c1)C(F)(F)F` (stereo partly drawn) [Example 149, (2S,4R)-4-[2-Chloro-4-(2,2,2-trifluoro-1-methyl-ethoxy)-benzenesulfonyl]-1-(1-trifluoromethyl-cyclopropanecarbonyl)-pyrrolidine-2-carboxylic acid (1-cyano-cyclopropyl)-amide]: the IC50 is 0.7 nM on Cathepsin S and 8100 nM on Cat L.
In the same order, the values of `CC(Oc1ccc(S(=O)(=O)[C@@H]2C[C@@H](C(=O)NC3(C#N)CC3)N(C=O)C2)c(Cl)c1)C(F)(F)F` (stereo partly drawn) [Example 150, (2S,4R)-4-[2-Chloro-4-(2,2,2-trifluoro-1-methyl-ethoxy)-benzenesulfonyl]-1-formyl-pyrrolidine-2-carboxylic acid (1-cyano-cyclopropyl)-amide] are 1.7 nM and 27900 nM.
In the same order, the values of `CC(C)(C)OC(=O)N1C[C@H](S(=O)(=O)c2ccc(N3CCC(F)(F)CC3)cc2Cl)C[C@H]1C(=O)NC1(C#N)CC1` [Example 152, (2S,4R)-4-[2-Chloro-4-(4,4-difluoro-piperidin-1-yl)-benzenesulfonyl]-2-(1-cyano-cyclopropylcarbamoyl)-pyrrolidine-1-carboxylic acid tert.-butyl ester] are 2.2 nM and 30800 nM.
For `CC(C)(C)OC(=O)N1C[C@H](S(=O)(=O)c2ccc(N3CCC(C(F)(F)F)CC3)cc2Cl)C[C@H]1C(=O)NC1(C#N)CC1` [Example 153, (2S,4R)-4-[2-Chloro-4-(4-trifluoromethyl-piperidin-1-yl)-benzenesulfonyl]-2-(1-cyano-cyclopropylcarbamoyl)-pyrrolidine-1-carboxylic acid tert.-butyl ester], in that order: 2.5 nM and 44000 nM.
For the compound `N#CC1(NC(=O)[C@@H]2C[C@@H](S(=O)(=O)c3ccc(N4CCC(C(F)(F)F)CC4)cc3Cl)CN2)CC1` [Example 154, (2S,4R)-4-[2-Chloro-4-(4-trifluoromethyl-piperidin-1-yl)-benzenesulfonyl]-pyrrolidine-2-carboxylic acid (1-cyano-cyclopropyl)-amide], the IC50 on Cathepsin S is 1.8 nM; on Cat L, 6630 nM.
Take `N#CC1(NC(=O)[C@@H]2C[C@@H](S(=O)(=O)c3ccc(N4CCC(F)(F)CC4)cc3Cl)CN2)CC1` [Example 155, (2S,4R)-4-[2-Chloro-4-(4,4-difluoro-piperidin-1-yl)-benzenesulfonyl]-pyrrolidine-2-carboxylic Acid (1-cyano-cyclopropyl)-amide]: the results for the concentration for half-maximal inhibition (IC50) at Cathepsin S and at Cat L were 2.5 nM and 8320 nM, respectively.
In the same order, the values of `N#CC1(NC(=O)[C@@H]2C[C@@H](S(=O)(=O)c3ccc(N4CCC(C(F)(F)F)CC4)cc3Cl)CN2C(=O)C2(C(F)(F)F)CC2)CC1` [Example 156, (2S,4R)-4-[2-Chloro-4-(4-trifluoromethyl-piperidin-1-yl)-benzenesulfonyl]-1-(1-trifluoromethyl-cyclopropanecarbonyl)-pyrrolidine-2-carboxylic acid (1-cyano-cyclopropyl)-amide] are 0.4 nM and 4400 nM.
In the same order, the values of `N#CC1(NC(=O)[C@@H]2C[C@@H](S(=O)(=O)c3ccc(N4CCC(F)(F)CC4)cc3Cl)CN2C(=O)C2(C(F)(F)F)CC2)CC1` [Example 157, (2S,4R)-4-[2-Chloro-4-(4,4-difluoro-piperidin-1-yl)-benzenesulfonyl]-1-(1-trifluoromethyl-cyclopropanecarbonyl)-pyrrolidine-2-carboxylic acid (1-cyano-cyclopropyl)-amide] are 0.4 nM and 4410 nM.
In the same order, the values of `CC(C)(C)OC(=O)N1C[C@@H](S(=O)(=O)c2ccccc2C(F)(F)F)C[C@H]1C(=O)NC1(C#N)CC1` [Example 158, (2S,4S)-2-(1-Cyano-cyclopropylcarbamoyl)-4-(2-trifluoromethyl-benzenesulfonyl)-pyrrolidine-1-carboxylic acid tert.-butyl ester] are 120 nM and no less than 25000 nM.
Regarding `N#CC1(NC(=O)[C@@H]2C[C@H](S(=O)(=O)c3ccccc3C(F)(F)F)CN2)CC1` [Example 159, (2S,4S)-4-(2-Trifluoromethyl-benzenesulfonyl)-pyrrolidine-2-carboxylic acid (1-cyano-cyclopropyl)-amide], the IC50 on Cathepsin S was 2610 nM; at Cat L, no less than 25000 nM.
Take `COc1ccc(N2C[C@H](S(=O)(=O)c3ccccc3C(F)(F)F)C[C@H]2C(=O)NC2(C#N)CC2)cc1` [Example 160, (2S,4R)-1-(4-Methoxy-phenyl)-4-(2-trifluoromethyl-benzenesulfonyl)-pyrrolidine-2-carboxylic Acid (1-cyano-cyclopropyl)-amide]: the 50% inhibitory concentration (IC50) is 6 nM on Cathepsin S and no less than 25000 nM at Cat L.
For `N#CC1(NC(=O)[C@@H]2C[C@@H](S(=O)(=O)c3ccc(N4CCOCC4)cc3Cl)CN2C(=O)C2(C(F)(F)F)CC2)CC1` [Example 161, (2S,4R)-4-(2-Chloro-4-morpholin-4-yl-benzenesulfonyl)-1-(1-trifluoromethyl-cyclopropanecarbonyl)-pyrrolidine-2-carboxylic acid (1-cyano-cyclopropyl)-amide], in that order: 0.4 nM and 6070 nM.

Values taken from patent US8163793B2, “Proline derivatives” (Hoffman-La Roche Inc., priority 2009, dated 2012).
